Measured values as given in PMC9738632 (Molecules, 2022).
In brackets after ≈: the same amount, converted by molar mass. Where two headings read alike, the source gives them in different places.

Tests used:
[1] = Cytotoxicity assay (MTT) in MDCK cells; type: cell-based, Canine; settings: dog, read-out: CC50 (50% cytotoxic concentration)
Procedure: (§1) Initially, maximum non-toxic concentrations were determined for compounds 1–22 to exclude their non-specific antiviral activity. The in vitro cytotoxicity of the tested compounds (CC50) was studied in the normal Madin-Darby Canine Kidney cell line (MDCK) by the MTT ((3-(4,5-dimethylthiazol-2-yl)-2,5-diphenyltetrazolium bromide) test. The highest concentration tested was […]. The cytotoxicity of oseltamivir carboxylate and rimantadine was also evaluated as these have been used as reference drugs in antiviral tests. Compounds at concentration that kills no more than 50% of cells (CC50) were used for further investigation of antiviral activity.
(§2) The MDCK cells were seeded onto 96-well culture plates (10^4 cells per well) and incubated at 36 °C in 5% CO2 until continuous monolayer formation. To assess the toxicity of the compounds, a series of their 3-fold dilutions, at concentrations of 300 to 3.7 μg/mL in Eagle’s Minimal Essential Medium (MEM), were prepared. The dilutions were added to the wells of the plates. The cells were incubated for 72 h at 36 °C in a CO2 incubator under 5% CO2. Further, a microtetrazolium (MTT) assay was performed on the 96-well plates. The cells were washed 2 times with saline (0.9% NaCl), and 100 μL/well of MTT solution [3-(4,5-dimethylthiazol-2-yl)-2,5-diphenyltetrazolium bromide] at a concentration of […] in MEM was added. The plates were incubated for 1 h at 36 °C, the liquid was removed, and dimethylsulfoxide (DMSO) (0.1 mL per well) was added. The optical density (OD) of the cells was measured on a Thermo Multiskan FC spectrophotometer (Thermo Fisher Scientific, Waltham, MA, USA) at a wavelength of 540 nm. Based on the obtained data, the CC50, the concentration of the compound that destroys 50% of the cells in the culture, was calculated for each specimen.

MDCK cells = experiment: Cytotoxicity assay (MTT) in MDCK cells; type: cell-based, Canine; settings: 72 h, read-out: CC50 (50% cytotoxic concentration)
Procedure: as §1, §2

[2] = test system: influenza virus A/Puerto Rico/8/34 (H1N1); experiment: organism not typed; type: cell-based; settings: read-out: IC50 (50% inhibitory concentration)
[3] = Cytotoxic assay (MTT) against BHK-21 cells; type: cell-based; settings: hamster, read-out: CC50 (50% cytotoxic concentration)
Procedure: The cytotoxic evaluation of the extracts was carried out against the BHK-21 cells. Under cultural conditions of EMEM with FBS (10%), the assaying cells were grown in 96-well bottom-transparent plates at a density of 6 × 10^4 cells/mL per well. The compounds that had been dissolved in dimethyl sulfoxide (DMSO) with six different concentrations (500, 250, 125, 62.5, 31.25, 15.625 μg/mL) were added into each well; each concentration was used in triplicate. After incubation at 37 °C under 5% CO2 atmosphere for 48 h, MTT (0.5 mg/mL) was added into each well; afterwards, 4 h incubation was carried out. The liquid in the wells was removed, and DMSO ([…]) was added to each well. The optical absorbance was recorded on a microplate reader at λ = 570 nm (Genious Tecan, Grödig, […]). The optical density in the wells was plotted against the logarithm of compound concentration, and 50% cytotoxic concentration (CC50), the compound concentration decreasing the optical density twice comparing to control wells, was calculated using the appropriate software (Table Curve 2Dv4.USA).

DENV-1:VN/2017/D7709 = experiment: Plaque reduction neutralization test (PRNT), DENV-1; type: cell-based, Dengue virus; settings: DENV-1, BHK-21 cells
From the text: (§3) The dengue viruses used in this study were DENV-1:VN/2017/D7709, DENV-2: 00St22A, DENV-3: SMLC50, DENV-4: SLMC318. The virus strains were supplied by the Vietnam National Institute of Hygiene and Epidemiology. The four above serotypes of the Dengue virus were propagated in BHK-21 cell lines (provided by Nagasaki University, Japan) in Eagle’s Minimum Essential Medium (EMEM; Gibco Thermo Fischer Scientific, Waltham, MA, USA) with 2% Fetal Bovine Serum (FBS; Sigma Aldrich, St. Louis, MO, USA) at 37 °C under 5% CO2 atmosphere for 5–7 days. The BHK-21 cells were cultured using 10% FBS EMEM medium.
(§4) EMEM (1 mL) containing FBS (2%) was added into each of 24-well plates (with a concentration of […] –1.0 × 10^4 cells/well). The well plates were shaken to induce the formation of identical cell layers. Afterwards, the wells were incubated at 37 °C under 5% CO2 atmosphere overnight until the cell concentration reached at 70–90%. In case this concentration was not yet reached, the incubation was allowed to continue for a further 1 to 2 days.
(§5) The compounds 4–8 and 23 were totally dissolved in EMEM with a concentration of 500 μg/mL, which was serially diluted with step 2 with EMEM containing 2% FBS; the solutions of compounds were kept at 2–8 °C. The viruses were used at the dose of 2.5 × 10^3 PFU/mL in EMEM containing 2% FBS. The virus (100 μL) was added to all the diluted samples. The virus-compounds mixtures were incubated at 37 °C under 5% CO2 atmosphere for 60 min; afterwards, the medium in all wells of the plates was removed. The virus-compounds mixture (50 μL) was added into the wells, according to the designed experimental test concentration/dilution.
(§6) The viral medium was used as the negative control. EMEM (2 mL) containing methyl cellulose (1%) was added and re-incubated at 37 °C under 5% CO2 atmosphere for 4–6 days. The typical DENV-1 and DENV-4-induced CPE appeared after 4 days of incubation, while the durations for DENV-2 and DENV-3 were 5 and 6 days, respectively. These times of incubation allowed the formation of the plaques to be visually observable and countable. The plaques can be observed under a microscope or by eyes. The cells were fixed with formalin (3.7%) for 1 h at room temperature, washed with water, and stained with crystal violet (0.25%) for 1 h at room temperature. Finally, the plaques were counted.

DENV-2: 00St22A = experiment: Plaque reduction neutralization test (PRNT), DENV-2; type: cell-based, Dengue virus; settings: DENV-2, BHK-21 cells
From the text: as §3, §4, §5, §6

DENV-3: SMLC50 = experiment: Plaque reduction neutralization test (PRNT), DENV-3; type: cell-based, Dengue virus; settings: DENV-3, BHK-21 cells
From the text: as §3, §4, §5, §6

DENV-4: SLMC318 = experiment: Plaque reduction neutralization test (PRNT), DENV-4; type: cell-based, Dengue virus; settings: DENV-4, BHK-21 cells
From the text: as §3, §4, §5, §6

S. aureus = test system: S. aureus; set-up: method as in doi:10.3390/M1078; settings: cited from earlier work
E. coli = test system: E. coli; set-up: method as in doi:10.3390/M1078; settings: cited from earlier work
P. aeruginosa = test system: P. aeruginosa; set-up: method as in doi:10.3390/M1078; settings: cited from earlier work

Molecule `CC1(C)CC[C@]2(C(=O)NCCNCCN)CC[C@]3(C)C(=CCC4[C@@]5(C)CCC(=O)C(C)(C)C5CC[C@]43C)C2C1` (stereo partly shown) [Compound 5] has a CC50 at 72 h [1] of 48 µM, a CC50 (MDCK cells) of 50 ± 4 µM and an IC50 ([2]; MDCK, 72 h) of 20 to 21 µM. The IC50 [2] was > 20 µM, the CC50 at 48 h [3] was > 463 µM and the “PRNT50 DENV-1 (concentration that reduces plaque number by 50%)” value (DENV-1:VN/2017/D7709) was “inactive”. For the same molecule, the IC50 (DENV-1:VN/2017/D7709; Dengue virus, DENV1, read-out: PRNT50 DENV-1 (concentration that reduces plaque number by 50%)) was 220 ± 14 µM, the “PRNT50 DENV-2 (concentration that reduces plaque number by 50%)” value (DENV-2: 00St22A) was “inactive” and the IC50 (DENV-2: 00St22A; Dengue virus, DENV2, read-out: PRNT50 DENV-2 (concentration that reduces plaque number by 50%)) was 372 ± 15 µM. The “PRNT50 DENV-3 (concentration that reduces plaque number by 50%)” value (DENV-3: SMLC50) was “inactive”, the IC50 (DENV-3: SMLC50; Dengue virus, DENV3, read-out: PRNT50 DENV-3 (concentration that reduces plaque number by 50%)) was 452 ± 26 µM and the “PRNT50 DENV-4 (concentration that reduces plaque number by 50%)” value (DENV-4: SLMC318) was “inactive”. For the same molecule, the IC50 (DENV-4: SLMC318; Dengue virus, DENV4, read-out: PRNT50 DENV-4 (concentration that reduces plaque number by 50%)) was 433 ± 31 µM, the “MIC against S. aureus” value (S. aureus) was 12.5 µM (≈ 6.75 µg/mL) and the “MIC against E. coli” value (E. coli) was 25 µM (≈ 13.5 µg/mL). The “MIC against P. aeruginosa” value (P. aeruginosa) was 50 µM (≈ 27 µg/mL).
